In patent US9815819B2, “Complement pathway modulators and uses thereof” (priority 2012, dated 2017) one finds IC50 data, which are given here for 19 compounds.

Structures are written as SMILES.

Chain of Recombinant human factor D (P00746 26-253): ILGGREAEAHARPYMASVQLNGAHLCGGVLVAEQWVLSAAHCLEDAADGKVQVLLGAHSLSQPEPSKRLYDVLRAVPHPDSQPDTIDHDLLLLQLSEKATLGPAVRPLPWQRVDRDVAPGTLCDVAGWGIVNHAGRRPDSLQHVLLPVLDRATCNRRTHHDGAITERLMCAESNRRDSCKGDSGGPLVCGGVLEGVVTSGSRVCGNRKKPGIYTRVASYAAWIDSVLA

One test addresses Recombinant human factor D (Homo sapiens (Human), UniProt P00746). Kind of test: Human Complement Factor D Assay: Method 1. Particulars: Factor D inhibition, Method 1: 10 nM factor D, 1 hour incubation with compound at room temperature, substrate Z-Lys-thiobenzyl, fluorescence readout; read-out: IC50. It is filed as biochemical.
Protocol: Recombinant human factor D (expressed in E. coli and purified using standard methods) at 10 nM concentration is incubated with test compound at various concentrations for 1 hour at room temperature in 0.1 M Hepes buffer, pH 7.5, containing 1 mM MgCl2, 1 M NaCl and 0.05% CHAPS. […] IC50 values are calculated from percentage of inhibition of complement factor D-activity as a function of test compound concentration.
One may read the IC50 as the concentration that inhibits the measured activity by half. Regarding `NC(=O)c1nn(CC(=O)N2[C@@H]3C[C@@H]3C[C@H]2C(=O)N[C@H]2C[C@]2(F)c2ccccc2)c2ccccc12` [Example 38, 1-{2-[(1R,3S,5R)-3-((1S,2S)-2-fluoro-2-phenyl-cyclopropylcarbamoyl)-2-aza-bicyclo[3.1.0]hex-2-yl]-2-oxo-ethyl}-1H-indazole-3-carboxylic acid amide], the IC50 came to 0.635 µM.

On to `NC(=O)c1nn(CC(=O)N2[C@@H]3C[C@@H]3C[C@H]2C(=O)N[C@@H]2C[C@@]2(F)c2ccccc2)c2cc(F)c(F)cc12` [Example 25, 5,6-Difluoro-1-{2-[(1R,3S,5R)-3-((1R,2R)-2-fluoro-2-phenyl-cyclopropylcarbamoyl)-2-aza-bicyclo[3.1.0]hex-2-yl]-2-oxo-ethyl}-1H-indazole-3-carboxylic acid amide], for which the IC50 came out at 0.11 µM. On the same count and under the same terms, to `CC(=O)c1nn(CC(=O)N2[C@@H]3C[C@@H]3C[C@H]2C(=O)N[C@H]2C[C@@H]2c2ccccc2)c2ccccc12` [Example 1, (1R,3S,5R)-2-[2-(3-Acetyl-indazol-1-yl)-acetyl]-2-aza-bicyclo[3.1.0]hexane-3-carboxylic acid((1S,2R)-2-phenyl-cyclopropyl)-amide] belongs 0.386 µM; to `Cc1cc2c(C(N)=O)nn(CC(=O)N3C[C@H](F)C[C@H]3C(=O)N[C@@H]3C[C@H]3c3ccccc3F)c2cn1` [Example 71, 1-(2-{(2S,4R)-4-Fluoro-2-[(1R,2S)-2-(2-fluoro-phenyl)-cyclopropylcarbamoyl]-pyrrolidin-1-yl}-2-oxo-ethyl)-5-methyl-1H-pyrazolo[3,4-c]pyridine-3-carboxylic acid amide], 0.09 µM. As to `NC(=O)c1nn(CC(=O)N2[C@@H]3C[C@@H]3C[C@H]2C(=O)NC2CC2(F)c2ccccc2F)c2ccccc12` (single isomer, unassigned) [Example 53], the IC50 is 0.036 µM. Still for that read-out and setting: to `NC(=O)c1nn(CC(=O)N2[C@@H]3C[C@@H]3C[C@H]2C(=O)N[C@H]2C[C@@H]2c2ccccc2Cl)c2cnccc12` [Example 21, 1-(2-{(1R,3S,5R)-3-[(1S,2R)-2-(2-Chloro-phenyl)-cyclopropylcarbamoyl]-2-aza-bicyclo[3.1.0]hex-2-yl}-2-oxo-ethyl)-1H-pyrazolo[3,4-c]pyridine-3-carboxylic acid amide] belongs 1.4 µM. As to `NC(=O)c1nn(CC(=O)N2[C@@H]3C[C@@H]3C[C@H]2C(=O)NC2CC2c2ccc(F)cc2F)c2ccccc12` (single isomer, unassigned) [Example 76], the IC50 is 0.036 µM.

On to `CC(=O)c1nn(CC(=O)N2[C@@H]3C[C@@H]3C[C@H]2C(=O)N[C@@H]2C[C@H]2c2ccccc2)c2cnccc12` [Example 5, (1R,3S,5R)-2-[2-(3-Acetyl-pyrazolo[3,4-c]pyridin-1-yl)-acetyl]-2-aza-bicyclo[3.1.0] hexane-3-carboxylic acid ((1R,2S)-2-phenyl-cyclopropyl)-amide], for which the IC50 was 0.106 µM. The same measure, in the same setting: the same measure for `NC(=O)c1nn(CC(=O)N2[C@@H]3C[C@@H]3C[C@H]2C(=O)N[C@H]2C[C@]2(F)c2ccccc2)c2cnccc12` [Example 42, 1-{2-[(1R,3S,5R)-3-((1S,2S)-2-Fluoro-2-phenyl-cyclopropylcarbamoyl)-2-aza-bicyclo[3.1.0]hex-2-yl]-2-oxo-ethyl}-1H-pyrazolo[3,4-c]pyridine-3-carboxylic acid amide]: 3.65 µM.

As to `CC(=O)c1nn(CC(=O)N2[C@@H]3C[C@@H]3C[C@H]2C(=O)N[C@H]2C[C@@H]2c2ccccc2F)c2ncccc12` [Example 64, (1R,3S,5R)-2-[2-(3-Acetyl-pyrazolo[3,4-b]pyridin-1-yl)-acetyl]-2-aza-bicyclo[3.1.0] hexane-3-carboxylic acid [(1S,2R)-2-(2-fluoro-phenyl)-cyclopropyl]-amide], the IC50 was 0.791 µM. Regarding `CC(=O)c1nn(CC(=O)N2[C@@H]3C[C@@H]3C[C@H]2C(=O)NC2CC(c3ccccc3F)C2)c2ncccc12` (stereo partly drawn) [Example 36, (1R,3S,5R)-2-[2-(3-Acetyl-pyrazolo[3,4-b]pyridin-1-yl)-acetyl]-2-aza-bicyclo[3.1.0] hexane-3-carboxylic acid [3-(2-fluoro-phenyl)-cyclobutyl]-amide], the IC50 worked out at 0.466 µM.

Turning to `NC(=O)c1nn(CC(=O)N2[C@@H]3C[C@@H]3C[C@H]2C(=O)NC2CC2(F)c2ccccc2F)c2ccccc12` (single isomer, unassigned) [Example 50], the IC50 amounted to 3.88 µM. In the case of `CC(=O)c1nn(CC(=O)N2[C@@H]3C[C@@H]3C[C@H]2C(=O)N[C@@H]2C[C@H]2c2ccccc2)c2ccncc12` [Example 3, (1R,3S,5R)-2-[2-(3-Acetyl-pyrazolo[4,3-c]pyridin-1-yl)-acetyl]-2-aza-bicyclo[3.1.0] hexane-3-carboxylic acid ((1R,2S)-2-phenyl-cyclopropyl)-amide], the IC50 stood at 0.147 µM. In the case of `NC(=O)c1nn(CC(=O)N2[C@H](C(=O)N[C@@H]3C[C@H]3c3ccccc3Cl)C[C@@]3(CO)C[C@@H]23)c2ccccc12` [Example 30, 1-(2-{(1R,3S,5S)-3-[(1R,2S)-2-(2-Chloro-phenyl)-cyclopropylcarbamoyl]-5-hydroxymethyl-2-aza-bicyclo[3.1.0]hex-2-yl}-2-oxo-ethyl)-1H-indazole-3-carboxylic acid amide], the IC50 turned out to be 0.022 µM. For the compound `CC(=O)c1nn(CC(=O)N2[C@H](C(=O)N[C@@H]3C[C@H]3c3ccccc3)C[C@@]3(CO)C[C@@H]23)c2cnccc12` [Example 29, (1R,3S,5S)-2-[2-(3-Acetyl-pyrazolo[3,4-c]pyridin-1-yl)-acetyl]-5-hydroxymethyl-2-aza-bicyclo[3.1.0]hexane-3-carboxylic acid((1R,2S)-2-phenyl-cyclopropyl)-amide], the concentration for half-maximal inhibition (IC50) was found to be 0.119 µM. In the case of `NC(=O)c1nn(CC(=O)N2C[C@H](F)C[C@H]2C(=O)N[C@@H]2C[C@H]2c2ccccc2)c2ccncc12` [Example 16, 1-{2-[(2S,4R)-4-Fluoro-2-((1R,2S)-2-phenyl-cyclopropylcarbamoyl)-pyrrolidin-1-yl]-2-oxo-ethyl}-1H-pyrazolo[4,3-c]pyridine-3-carboxylic acid amide], the IC50 was 1.24 µM. As for `Cc1cc2c(C(N)=O)nn(CC(=O)N3[C@@H]4C[C@@H]4C[C@H]3C(=O)N[C@@H]3C[C@@]3(F)c3ccccc3)c2cn1` [Example 48, 1-{2-[(1R,3S,5R)-3-((1R,2R)-2-Fluoro-2-phenyl-cyclopropylcarbamoyl)-2-aza-bicyclo[3.1.0]hex-2-yl]-2-oxo-ethyl}-5-methyl-1H-pyrazolo[3,4-c]pyridine-3-carboxylic acid amide], the IC50 stood at 0.03 µM.

The same test, now with this note: IC50 (μM), Factor D inhibition, Method 1: 10 nM factor D, 1 hour incubation with compound at room temperature, substrate Z-Lys-thiobenzyl, fluorescence readout.
Regarding `NC(=O)c1nn(CC(=O)N2[C@@H]3C[C@@H]3C[C@H]2C(=O)NC2CCCC(c3ccccc3)C2)c2ccccc12` (single isomer, unassigned) [Example 81], the IC50 stood at 5.65 µM. As to `NC(=O)c1nn(CC(=O)N2[C@@H]3C[C@@H]3C[C@H]2C(=O)NC2CCCC(c3ccccc3)C2)c2ccccc12` (single isomer, unassigned) [Example 78], the IC50 stood at 2 µM.
